Experimental data as given in ChEMBL document CHEMBL6134827, “The discovery of novel antimicrobial peptides against drug-resistant bacteria based on fragments fusion strategy” (Eur J Med Chem, 2025).
Starred links: 1 amine or outer side, 2 acyl side, 3 side chain; linkers in the order of their positions; H or OH if unused. Non-standard residues stand in square brackets, D forms with d. Residues, ends and D or L forms follow the SMILES beside them. εLys = N[C@@H](CCCCN[*:1])C(=O)[*:2]; Dab = NCC[C@H](N)C(=O)O

Experiments:
Type in all cases: functional
[1] = test system: Acinetobacter baumannii; experiment: Antimicrobial activity against multidrug resistant Acinetobacter baumannii assessed as inhibition of visible microbial growth incubated for 18 hrs by broth microdilution method
[2] = test system: Escherichia coli; experiment: Antimicrobial activity against Escherichia coli ATCC 25922 assessed as inhibition of visible microbial growth incubated for 18 hrs by broth microdilution method
[3] = test system: Staphylococcus aureus; experiment: Antimicrobial activity against multidrug resistant Staphylococcus aureus assessed as inhibition of visible microbial growth incubated for 18 hrs by broth microdilution method
[4] = test system: Pseudomonas aeruginosa; experiment: Antimicrobial activity against multidrug resistant Pseudomonas aeruginosa assessed as inhibition of visible microbial growth incubated for 18 hrs by broth microdilution method
[5] = test system: Escherichia coli; experiment: Antimicrobial activity against multidrug resistant Escherichia coli assessed as inhibition of visible microbial growth incubated for 18 hrs by broth microdilution method
[6] = test system: Staphylococcus aureus; experiment: Antimicrobial activity against Staphylococcus aureus ATCC 29213 assessed as inhibition of visible microbial growth incubated for 18 hrs by broth microdilution method

With `CC(C)C[C@H](NC(=O)CN)C(=O)N[C@@H](CCCNC(=N)N)C(=O)N[C@H](CCCCN)C(=O)N[C@@H](Cc1c[nH]c2ccccc12)C(=O)N[C@@H](CC(C)C)C(=O)N[C@@H](CCCNC(=N)N)C(=O)N[C@@H](CCN)C(=O)N[C@@H](Cc1ccccc1)C(=O)N[C@@H](CCCCN)C(=O)N[C@@H](CCCCN)C(=O)N[C@@H](Cc1ccccc1)C(=O)N[C@@H](Cc1c[nH]c2ccccc12)C(=O)O` the MIC [1] was 4.5 µM, the MIC [2] was 18.1 µM and the MIC [3] was 18.1 µM. For the same molecule, the MIC [4] was 4.5 µM, the MIC [5] was 9.1 µM and the MIC [6] was 18.1 µM.

`CC(C)C[C@H](NC(=O)CN)C(=O)N[C@@H](CCCNC(=N)N)C(=O)N[C@@H](CCCCN)C(=O)N[C@@H](Cc1c[nH]c2ccccc12)C(=O)N[C@@H](CC(C)C)C(=O)N[C@@H](CCCNC(=N)N)C(=O)N[C@@H](CCCCN)C(=O)N[C@@H](Cc1ccccc1)C(=O)N[C@@H](CCCCN)C(=O)N[C@@H](CCN)C(=O)N[C@@H](Cc1ccccc1)C(=O)N[C@@H](Cc1c[nH]c2ccccc12)C(=O)O` (H-GLRKWLRKFK[Dab]FW-OH) showed an MIC [1] of 4.5 µM, an MIC [2] of 9.1 µM and an MIC [3] of 18.1 µM. The MIC [4] was 4.5 µM, the MIC [5] was 4.5 µM and the MIC [6] was 9.1 µM.

With `CC(C)C[C@H](NC(=O)CN)C(=O)N[C@@H](CCCNC(=N)N)C(=O)N[C@@H](CCCCN)C(=O)N[C@@H](Cc1c[nH]c2ccccc12)C(=O)N[C@@H](CC(C)C)C(=O)N[C@@H](CCCNC(=N)N)C(=O)N[C@@H](CCCCN)C(=O)N[C@@H](Cc1ccccc1)C(=O)N[C@@H](CCCCN)C(=O)NCCCC[C@H](N)C(=O)N[C@@H](Cc1ccccc1)C(=O)N[C@@H](Cc1c[nH]c2ccccc12)C(=O)O` (H-GLRKWLRKFK[εLys]FW-OH) the MIC [1] was 17.9 µM, the MIC [2] was 4.5 µM and the MIC [3] was 17.9 µM. The MIC [4] was 8.9 µM, the MIC [5] was 35.7 µM and the MIC [6] was 17.9 µM.

`CC(C)C[C@H](NC(=O)CN)C(=O)N[C@@H](CCCNC(=N)N)C(=O)N[C@@H](CCCCN)C(=O)N[C@@H](Cc1c[nH]c2ccccc12)C(=O)N[C@@H](CC(C)C)C(=O)N[C@@H](CCCNC(=N)N)C(=O)N[C@@H](CCCCN)C(=O)N[C@@H](Cc1ccccc1)C(=O)N[C@@H](CCN)C(=O)N[C@@H](CCCCN)C(=O)N[C@@H](Cc1ccccc1)C(=O)N[C@@H](Cc1c[nH]c2ccccc12)C(=O)O` (H-GLRKWLRKF[Dab]KFW-OH) was tested, and the MIC [1] was 4.5 µM, the MIC [2] was 9.1 µM and the MIC [3] was 18.1 µM. It also gave an MIC [4] of 4.5 µM, an MIC [5] of 4.5 µM and an MIC [6] of 18.1 µM.

`CC(C)C[C@H](NC(=O)CN)C(=O)N[C@@H](CCCNC(=N)N)C(=O)N[C@@H](CCCCN)C(=O)N[C@@H](Cc1c[nH]c2ccccc12)C(=O)N[C@@H](CC(C)C)C(=O)N[C@@H](CCCNC(=N)N)C(=O)N[C@@H](CCCCN)C(=O)N[C@@H](Cc1ccccc1)C(=O)N[C@@H](CCN)C(=O)N[C@@H](CCN)C(=O)N[C@@H](Cc1ccccc1)C(=O)N[C@@H](Cc1c[nH]c2ccccc12)C(=O)O` (H-GLRKWLRKF[Dab][Dab]FW-OH) showed an MIC [1] of 4.6 µM, an MIC [2] of 9.2 µM and an MIC [3] of 9.2 µM. For the same molecule, the MIC [4] was 4.6 µM, the MIC [5] was 9.2 µM and the MIC [6] was 18.4 µM.

`CC(C)C[C@H](NC(=O)CN)C(=O)N[C@@H](CCCNC(=N)N)C(=O)N[C@@H](CCCCN)C(=O)N[C@@H](Cc1c[nH]c2ccccc12)C(=O)N[C@@H](CC(C)C)C(=O)N[C@@H](CCCNC(=N)N)C(=O)N[C@@H](CCCCN)C(=O)N[C@@H](Cc1ccccc1)C(=O)NCCCC[C@H](N)C(=O)N[C@@H](CCCCN)C(=O)N[C@@H](Cc1ccccc1)C(=O)N[C@@H](Cc1c[nH]c2ccccc12)C(=O)O` (H-GLRKWLRKF[εLys]KFW-OH) gave an MIC [1] of 17.9 µM, an MIC [2] of 8.9 µM and an MIC [3] of 17.9 µM. It also gave an MIC [4] of 8.9 µM, an MIC [5] of 35.7 µM and an MIC [6] of 17.9 µM.

`CC(C)C[C@H](NC(=O)CN)C(=O)N[C@@H](CCCNC(=N)N)C(=O)N[C@@H](CCCCN)C(=O)N[C@@H](Cc1c[nH]c2ccccc12)C(=O)N[C@@H](CC(C)C)C(=O)N[C@@H](CCCNC(=N)N)C(=O)N[C@@H](CCN)C(=O)N[C@@H](Cc1ccccc1)C(=O)N[C@@H](CCN)C(=O)N[C@@H](CCN)C(=O)N[C@@H](Cc1ccccc1)C(=O)N[C@@H](Cc1c[nH]c2ccccc12)C(=O)O` (H-GLRKWLR[Dab]F[Dab][Dab]FW-OH) showed an MIC [1] of 4.7 µM, an MIC [2] of 9.4 µM and an MIC [3] of 9.4 µM. It also gave an MIC [4] of 4.7 µM, an MIC [5] of 4.7 µM and an MIC [6] of 4.7 µM.

`CC(C)C[C@H](NC(=O)CN)C(=O)N[C@@H](CCCNC(=N)N)C(=O)N[C@@H](CCCCN)C(=O)N[C@@H](Cc1c[nH]c2ccccc12)C(=O)N[C@@H](CC(C)C)C(=O)N[C@@H](CCCNC(=N)N)C(=O)NCCCC[C@H](N)C(=O)N[C@@H](Cc1ccccc1)C(=O)N[C@@H](CCCCN)C(=O)N[C@@H](CCCCN)C(=O)N[C@@H](Cc1ccccc1)C(=O)N[C@@H](Cc1c[nH]c2ccccc12)C(=O)O` (H-GLRKWLR[εLys]FKKFW-OH) gave an MIC [1] of 35.7 µM, an MIC [2] of 17.9 µM and an MIC [3] of 35.7 µM. For the same molecule, the MIC [4] was 17.9 µM, the MIC [5] was 35.7 µM and the MIC [6] was 35.7 µM.
